US7880021B2, “Compounds and kits for the detection and the quantification of cell apoptosis” (Centre National de la Recherche Scientifique (CNRS), priority 2005, dated 2011)

Columns and labels:
[1] = Fluorescence properties of the probes (absorption maximum, band resolution); format: physicochemical
Excerpt: The probe TCN12S is an analog of F2N12S and was synthesized to improve the fluorescence properties. Indeed, substitution of the 2-phenyl group with 2-thienyl shifts the absorption maximum from 420 nm to 445 nm, making this probe suitable for excitation with a He/Cd laser (442 nm). Moreover, the resolution between the two emission bands increases from 90 nm (F2N12S) to 120 nm (TCN12S), favoring two-color ratiometric detection.

HeLa cells = assay: Flow cytometry F2N12S intensity ratio in HeLa cells; format: cell-based; conditions: data not shown
Excerpt: (§1) The probe of the invention F2N12S has been combined with PI and the fluorescence intensities of PI have been represented as a function of the T*/N* ratio of F2N12S (FIG. 6c). In this case, the populations of apoptotic and dead cells are clearly discriminated by using the differences in the PI intensities. […] This conclusion was further strengthened when the populations discriminated by the F2N12S/PI couple were colored according to their response with the annexin V-FITC/PI couple (FIG. 6d).

T lymphocytes = assay: Laser scanning confocal ratiometric imaging of T lymphocytes; format: cell-based
Experimental: FIG. 9: Laser scanning confocal imaging of T lymphocytes stained with annexin V-FITC (a) and F2N12S (b and c). Combination of transmission and fluorescence images of cells treated with actinomycin D for 18 hours (please complete this sentence). […] Due to their low binding to annexin V, normal cells are not visualized in the fluorescence images. (b and c) Ratiometric images of normal (b) and actinomycin D-treated (c) cells stained with 0.2 μM F2N12S. […] The size of the images is 60×73.1 μm.
FIG. 10: Time-series of confocal fluorescence ratiometric images of actinomycin D-treated T lymphocytes stained with F2N12S. The cells were treated with actinomycin D for 18 hours and then, incubated with the probe (0.2 μM) for 5 min. Images were recorded at 1 min (a), 10 min (b) and 20 min (c) post incubation. […] The size of the images is 60×73.1 μm.
For collecting cell images, a Laser Scanning Confocal Imaging System MRC-1024 (Bio-Rad) was used. Cells in chambered cover glass were prepared by following the preparation procedure described above. The 442 nm line of a HeCd laser was used as the excitation light source. Emission was collected by using two filters: 485/30 for the N* band and 585LP for the T* band. Collected images were analyzed by the Amira 3.0 software.
To further compare F2N12S and annexinV-derived probes, two-color ratiometric images of F2N12S-labeled cells undergoing apoptosis were recorded by laser scanning confocal microscopy and compared with intensity based images obtained using annexin V-FITC. […] Moreover, the fluorescence intensity of apoptotic cells varies considerably from cell to cell. These differences are difficult to interpret since the intensity depends on the probe concentration as well as on the size and confluence of the cells. […] According to our spectroscopy and flow cytometry data, the latter cells are apoptotic. […] Thus, unlike annexin V-FITC, these probes provide an absolute parameter, the intensity ratio, which can be calibrated, and can characterize the level of apoptosis independently of the probe/cell concentration and the excitation light intensity. In addition, the inventors have observed that in normal cells and cells on the initial steps of apoptosis, the T*/N* intensity ratio is not evenly distributed within the plasma membrane of a given cell. This may indicate an inhomogeneous lipid composition of their plasma membranes that is likely related to the presence of lipid domains.
The inventors also follow apoptotic transformation of the plasma membrane as a function of time. Normal and actinomycin D-treated cells were stained with the corresponding probe and the fluorescence images were subsequently recorded during 20 min. […]

L 929 cells = assay: Confocal fluorescence imaging of L 929 cells stained with 3-HF probes; format: cell-based
Experimental: FIG. 1: (a) Formula and location of 3-HF probes of the prior art F and F2N8 and of the probe of the invention F2N12S in phospholipid bilayers (a). Confocal fluorescence images of L 929 cells stained with probes F (b), F2N8 (c) and F2N12S (d). All images were obtained by collecting fluorescence in the 585-700 nm wavelength range 10 min after probe addition. Scale bar, 10 μm (b).
The cells were washed twice by HBSS before each experiment to eliminate fetal bovine serum. In sorting experiments, cells were resuspended in the binding buffer and labeled with the annexin V-FITC kit. For fluorescence measurements with the probe of the invention F2N12S (fluorometry, flow cytometry and confocal microscopy), cells were resuspended in HBSS with 0.1 μM F2N12S. Then, the cell suspension was placed in a shaker bath for 10 min in the incubator. The staining pattern of the cells was checked with a Confocal Imaging System MRC-1024 (BioRad) to ascertain that fluorescence originates from the plasma membrane.
For collecting cell images, a Laser Scanning Confocal Imaging System MRC-1024 (Bio-Rad) was used. […] Collected images were analyzed by the Amira 3.0 software.
Confocal laser microscopy have been performed on adherent L 929 cells stained with these first generation molecules (FIG. 1.b, c). The obtained fluorescence images reveal a rapid penetration of these dyes inside the cells. […]

3T3 fibroblasts = assay: Flow cytometry F2N12S intensity ratio in 3T3 fibroblasts; format: cell-based; conditions: data not shown
Excerpt: as §1

[2] = tested on: human lymphoid cell line CEM T; assay: Toxicity test by flow cytometry using PI; format: cell-based; conditions: 1 μM F2N12S; 0.5, 1 and 4 hours incubation
Experimental: The toxicity of the F2N12S molecules was tested by flow cytometry using PI (19 μM). Cells were washed twice as described above and separated in nine batches: three batches for control measurements, three batches with 10^-7 M F2N12S and three batches with 10^-6 M F2N12S. The batches were incubated for 0.5 hour, 1 hour and 4 hours, respectively. The 488 nm line of an argon laser was used as the excitation light source. Emission was collected by using the 630FD22 filter.
Next, the cytotoxicity of the newly synthesized probe, F2N12S, was evaluated on the human lymphoid cell line CEM T. F2N12S was added at 0.1 μM (working concentration) and 1 μM and, incubated for different times (0.5, 1 and 4 hours).

## 1-dodecanaminium, N-[[2-[4-Diethylaminophenyl]-3-hydroxychromon-6-yl]-methyl]-N-methyl-N-(3-sulfopropyl)-, inner salt [F2N12S]
[1]
  absorption maximum: 420 nm
  resolution between the two emission bands: 90 nm
HeLa cells
  F2N12S intensity ratio values compared with T lymphoblastoid cells: very similar
T lymphocytes; actinomycin D-treated cells, images recorded during 20 min
  time-dependent change of the fluorescence images: relatively fast change in the emission color
T lymphocytes; normal and actinomycin D-treated cells
  which cells are stained in fluorescence images: stains both normal (FIG. 9b) and apoptotic cells (FIG. 9c) but in different colors
L 929 cells; L 929 cells in HBSS buffer, limited by lifetime of the cells
  time the probes stay in the plasma membrane (whole observation time): approx. 1 hour
L 929 cells; adherent L 929 cells, images 10 min after probe addition, 585-700 nm
  location of probe fluorescence in stained cells: emission exclusively from the plasma membranes
3T3 fibroblasts
  F2N12S intensity ratio values compared with T lymphoblastoid cells: very similar
[2]
  percentage of dead cells: ≤ 4%
